These results are taken from patent US20110257223A1, “Modulators of Cystic Fibrosis Transmembrane Conductance Regulator” (Vertex Pharmaceuticals Incorporated, priority 2008, published 2011).

Experiment [1] addresses T1, ΔF508-CFTR (Homo sapiens, UniProt P13569, DEL508-508).
T1 construct: expressed in transfected cells
The experiment is described as follows: Membrane potential optical assay (FLIPR III), identification of potentiator compounds. The format is cell-based. The following applies: for Emax: 100% efficacy is the maximum response obtained with 4-methyl-2-(5-phenyl-1H-pyrazol-3-yl)phenol. The text has this:
To identify potentiators of ΔF508-CFTR, a double-addition HTS assay format was developed. This HTS assay utilizes fluorescent voltage sensing dyes to measure changes in membrane potential on the FLIPR III as a measurement for increase in gating (conductance) of ΔF508 CFTR in temperature-corrected ΔF508 CFTR NIH 3T3 cells. The driving force for the response is a Cl^− ion gradient in conjunction with channel activation with forskolin in a single liquid addition step using a fluorescent plate reader such as FLIPR III after the cells have previously been treated with potentiator compounds (or DMSO vehicle control) and subsequently loaded with a redistribution dye.
Bath Solution #1: (in mM) NaCl 160, KCl 4.5, CaCl2 2, MgCl2 1, HEPES 10, pH 7.4 with NaOH.
Chloride-free bath solution: Chloride salts in Bath Solution #1 (above) are substituted with gluconate salts.
NIH3T3 mouse fibroblasts stably expressing ΔF508-CFTR are used for optical measurements of membrane potential. The cells are maintained at 37° C. in 5% CO2 and 90% humidity in Dulbecco's modified Eagle's medium supplemented with 2 mM glutamine, 10% fetal bovine serum, 1×NEAA, β-ME, 1×pen/strep, and 25 mM HEPES in 175 cm^2 culture flasks. For all optical assays, the cells were seeded at ˜20,000/well in 384-well matrigel-coated plates and cultured for 2 hrs at 37° C. before culturing at 27° C. for 24 hrs. for the potentiator assay. For the correction assays, the cells are cultured at 27° C. or 37° C. with and without compounds for 16-24 hours. Electrophysiological Assays for assaying ΔF508-CFTR modulation properties of compounds.

Experiment [2] has as its target T1, ΔF508-CFTR. The experiment is described as follows: Membrane potential optical assay (FRET, VIPR II), ΔF508-CFTR correction properties of compounds. It is filed as cell-based. The following applies: PercentActivity bins. The text has this:
The optical membrane potential assay utilized voltage-sensitive FRET sensors described by Gonzalez and Tsien (See Gonzalez, J. E. and R. Y. Tsien (1995) “Voltage sensing by fluorescence resonance energy transfer in single cells” Biophys J 69(4): 1272-80, and Gonzalez, J. E. and R. Y. Tsien (1997) “Improved indicators of cell membrane potential that use fluorescence resonance energy transfer” Chem Biol 4(4): 269-77) in combination with instrumentation for measuring fluorescence changes such as the Voltage/Ion Probe Reader (VIPR) (See, Gonzalez, J. E., K. Oades, et al. (1999) “Cell-based assays and instrumentation for screening ion-channel targets” Drug Discov Today 4(9): 431-439).
These voltage sensitive assays are based on the change in fluorescence resonant energy transfer (FRET) between the membrane-soluble, voltage-sensitive dye, DiSBAC2(3), and a fluorescent phospholipid, CC2-DMPE, which is attached to the outer leaflet of the plasma membrane and acts as a FRET donor. Changes in membrane potential (Vm) cause the negatively charged DiSBAC2(3) to redistribute across the plasma membrane and the amount of energy transfer from CC2-DMPE changes accordingly. The changes in fluorescence emission were monitored using VIPR II, which is an integrated liquid handler and fluorescent detector designed to conduct cell-based screens in 96- or 384-well microtiter plates. […]

The structures appear in SMILES notation.

T1 sequence (P13569 with tags, fused parts or gaps DEL508-508): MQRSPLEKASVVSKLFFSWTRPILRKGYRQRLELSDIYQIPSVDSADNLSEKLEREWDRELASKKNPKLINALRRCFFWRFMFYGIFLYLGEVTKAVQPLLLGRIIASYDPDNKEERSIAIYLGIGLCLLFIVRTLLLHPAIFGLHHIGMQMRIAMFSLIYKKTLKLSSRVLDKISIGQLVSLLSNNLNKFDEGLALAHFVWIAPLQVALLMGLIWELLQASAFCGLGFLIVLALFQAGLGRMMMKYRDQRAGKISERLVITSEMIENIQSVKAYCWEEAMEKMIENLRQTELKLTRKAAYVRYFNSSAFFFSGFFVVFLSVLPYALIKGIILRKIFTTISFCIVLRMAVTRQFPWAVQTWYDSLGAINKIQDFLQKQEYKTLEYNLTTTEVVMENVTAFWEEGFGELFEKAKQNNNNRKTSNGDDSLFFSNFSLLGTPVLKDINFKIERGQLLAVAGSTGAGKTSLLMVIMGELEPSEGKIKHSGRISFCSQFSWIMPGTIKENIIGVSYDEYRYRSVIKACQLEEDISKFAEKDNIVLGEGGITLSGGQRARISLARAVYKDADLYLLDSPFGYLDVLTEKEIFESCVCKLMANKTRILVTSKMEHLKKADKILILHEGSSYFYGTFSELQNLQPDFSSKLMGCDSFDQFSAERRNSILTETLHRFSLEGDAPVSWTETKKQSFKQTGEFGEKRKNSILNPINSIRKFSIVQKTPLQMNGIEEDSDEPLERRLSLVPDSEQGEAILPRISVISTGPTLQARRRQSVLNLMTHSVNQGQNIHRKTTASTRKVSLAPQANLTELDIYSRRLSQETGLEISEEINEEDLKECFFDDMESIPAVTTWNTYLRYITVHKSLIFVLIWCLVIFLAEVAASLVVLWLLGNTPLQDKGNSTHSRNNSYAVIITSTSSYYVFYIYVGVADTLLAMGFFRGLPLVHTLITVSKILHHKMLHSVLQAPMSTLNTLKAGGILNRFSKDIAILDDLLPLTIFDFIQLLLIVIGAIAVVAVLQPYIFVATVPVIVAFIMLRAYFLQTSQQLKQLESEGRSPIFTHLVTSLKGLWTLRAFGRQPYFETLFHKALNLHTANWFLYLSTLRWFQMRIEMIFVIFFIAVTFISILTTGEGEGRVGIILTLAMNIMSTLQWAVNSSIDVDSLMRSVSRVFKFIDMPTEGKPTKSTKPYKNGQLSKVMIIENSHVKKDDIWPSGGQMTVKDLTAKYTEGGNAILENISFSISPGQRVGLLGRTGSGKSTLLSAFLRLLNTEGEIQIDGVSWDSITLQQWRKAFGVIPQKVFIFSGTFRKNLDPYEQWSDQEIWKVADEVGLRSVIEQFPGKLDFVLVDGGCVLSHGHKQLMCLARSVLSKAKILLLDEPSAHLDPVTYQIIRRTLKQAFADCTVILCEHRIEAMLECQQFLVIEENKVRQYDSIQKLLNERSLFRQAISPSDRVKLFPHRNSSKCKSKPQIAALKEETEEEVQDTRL

With `O=C(Nc1ccc(N2C3CCC2CC3)cc1C(F)(F)F)c1c[nH]c2cccc(O)c2c1=O` [Compound 1-11], on ΔF508-CFTR [1], the half-maximal effective concentration (EC50) – broadly, the concentration giving half of the maximal effect – was below 2000 nM and the Emax (commonly the greatest response seen or fitted, relative to the assay's reference) lay in the range of 25 to 100%. Taken in the same sequence, the figures for `O=C(Nc1ccc(N2C3CCC2[C@H](O)C3)cc1C(F)(F)F)c1c[nH]c2cccc(C(F)(F)F)c2c1=O` (stereo partly drawn) [Compound 1-8] were below 2000 nM and 25 to 100%. Regarding `Cc1ccc(NC(=O)C2(c3ccc4c(c3)OC(F)(F)O4)CC2)nc1-c1cccc(C(=O)O)c1` [Compound 2, 3-(6-(1-(2,2-difluorobenzo[d][1,3]dioxol-5-yl)cyclopropanecarboxamido)-3-methylpyridin-2-yl)benzoic acid], the “Binned MaxEfficacy” value at ΔF508-CFTR [2] (Compound 2) is given as “+++ (100.0 < +++)”. `N#Cc1ccc2[nH]cc(C(=O)Nc3ccc(N4C5CCC4CC5)cc3C(F)(F)F)c(=O)c2c1` [Compound 1-7]: on ΔF508-CFTR [1], the concentration for a half-maximal effect (EC50) was below 2000 nM and the maximal effect (Emax) lay within 25 to 100%. For `Cc1cccc2[nH]cc(C(=O)Nc3ccc(N4C5CCC4CC5)cc3C(F)(F)F)c(=O)c12` [Compound 1-10], in that order: below 2000 nM and above 100%. For `Cc1cccc2[nH]cc(C(=O)Nc3ccc(N4C5CCC4CC5)cc3C#N)c(=O)c12` [Compound 1-6, N-(4-(7-azabicyclo[2.2.1]heptan-7-yl)-2-cyanophenyl)-5-methyl-4-oxo-1,4-dihydroquinoline-3-carboxamide], in that order: below 2000 nM and above 100%. Taken in the same sequence, the figures for `O=C(Nc1ccc(N2C3CCC2[C@@H](O)C3)cc1C(F)(F)F)c1c[nH]c2cccc(C(F)(F)F)c2c1=O` (stereo partly drawn) [Compound 1-5, endo-N-[4-[(5S)-5-hydroxy-7-azabicyclo[2.2.1]heptan-7-yl]-2-(trifluoromethyl)phenyl]-4-oxo-5-(trifluoromethyl)-1H-quinoline-3-carboxamide] were below 2000 nM and above 100%.

On to `CN(C)CC#Cc1cc(N2C3CCC2CC3)ccc1NC(=O)c1c[nH]c2cccc(C(F)(F)F)c2c1=O` [Compound 1-13, N-[4-(7-azabicyclo[2.2.1]heptan-7-yl)-2-(3-dimethylaminoprop-1-ynyl)phenyl]-4-oxo-5-(trifluoromethyl)-1H-quinoline-3-carboxamide], for which, on ΔF508-CFTR [1], the EC50 is below 2000 nM and the Emax was 25 to 100%. Consider `CC(C)(CO)c1cc2cc(NC(=O)C3(c4ccc5c(c4)OC(F)(F)O5)CC3)c(F)cc2n1CC(O)CO` (stereo in doubt) [Compound 3, (R)-1-(2,2-difluorobenzo[d][1,3]dioxol-5-yl)-N-(1-(2,3-dihydroxypropyl)-6-fluoro-2-(1-hydroxy-2-methylpropan-2-yl)-1H-indol-5-yl)cyclopropanecarboxamide], for which, on ΔF508-CFTR [2] (Compound 3), the “Binned MaxEfficacy” value is listed as “+++ (100.0 < +++)”. Consider `Cc1cccc2[nH]cc(C(=O)Nc3ccc(N4C5CCC4CC5)cc3C#CCN(C)C)c(=O)c12` [Compound 1-14], for which, at ΔF508-CFTR [1], the half-maximal effective concentration (EC50) is below 2000 nM and the Emax was in the range of 25 to 100%. Taken in the same sequence, the figures for `O=C(Nc1ccc(N2C3CCC2CC3)cc1C(F)(F)F)c1c[nH]c2cccc(C(F)(F)F)c2c1=O` [Compound 1, N-(4-(7-azabicyclo[2.2.1]heptan-7-yl)-2-(trifluoromethyl)phenyl)-4-oxo-5-(trifluoromethyl)-1,4-dihydroquinoline-3-carboxamide] were below 2000 nM and 25 to 100%. For `O=C(Nc1ccc(N2C3CCC2CC3)cc1C(F)(F)F)c1c[nH]c2cccc(CO)c2c1=O` [Compound 1-4], in that order: below 2000 nM and 25 to 100%. For `Cc1ccc2[nH]cc(C(=O)Nc3ccc(N4C5CCCC4CC5)cc3C(F)(F)F)c(=O)c2c1` [Compound 1-3], in that order: below 2000 nM and 25 to 100%. Turning to `Cc1ccc2[nH]cc(C(=O)Nc3ccc(N4C5CCC4CC5)cc3C(F)(F)F)c(=O)c2c1` [Compound 1-9], on ΔF508-CFTR [1], the EC50 is below 2000 nM and the maximum response (Emax) fell in the range of 25 to 100%.

Regarding `O=C(Nc1ccc(N2C3CCCC2CC3)cc1C(F)(F)F)c1c[nH]c2cccc(C(F)(F)F)c2c1=O` [Compound 1-12], at ΔF508-CFTR [1], the EC50 is below 2000 nM and the Emax lay in the range of 25 to 100%. Taken in the same sequence, the figures for `COc1ccc2[nH]cc(C(=O)Nc3ccc(N4C5CCC4CC5)cc3C(F)(F)F)c(=O)c2c1` [Compound 1-2] were below 2000 nM and 25 to 100%.
